US11701360B2, “Composition for inducing differentiation and protection of neural stem cells and method for inducing neuro-regeneration using the same composition” (GENUV Inc., priority 2017, dated 2023)

Key:
[1] = system: 5XFAD mouse; experiment: BrdU staining in the hippocampal dentate gyrus, 5XFAD mouse; details: orally daily for 28 days; vs vehicle
Protocol: For the BrdU staining to be performed later, 50 mg/kg of BrdU (Sigma, cat #. B5002) was added to the daily dose for the last 5 days. The mouse was then anesthetized and perfused with PBS for the extraction of the brain. […] The other half of the hemispheres plus another 3 extracted mice brains per group were placed in 10% formalin solution at 4° C. for 1 day, which was then followed with the proceeding steps to allow good penetration of paraffin into the brain tissue. The brain tissues were immersed sequentially in 70%, 80%, 95%, 100% alcohol for 1 hour each for dehydration, then immersed in xylene 3 times for 1 hour each for clearing, and embedded in paraffin by placing in liquid paraffin 2 times for 1 hour each. After these procedures, the paraffin-embedded brain tissue (paraffin block) was cut into 5 μm sections, mounted on slides, and stored at room temperature. Prior to immunohistochemical staining, the tissues on the slides were rehydrated by sequentially immersing in xylene, 100%, 90%, 80%, 70%, 50% alcohol, and then water for 5 minutes each. […] The next day, the slides were incubated with anti-rabbit antibodies (Vector lab, cat #. PI-1000) at room temperature for 1 hour and then stained with DAB staining for the analysis of the neuronal distribution in the brain.

[2] = system: mouse adult neural stem cells; experiment: qRT-PCR of neuronal marker mRNA expression in mouse adult NSC; type: cell-based; details: 10 nM; 2 days
[3] = system: pERK; experiment: Western blotting of pERK in brain hemispheres, 5XFAD mouse; type: in vivo; details: 0.1 mg/kg and 1.0 mg/kg PO; vs vehicle
[4] = system: 5XFAD mouse; experiment: Tuj1 and calbindin staining of cerebellar Purkinje cells, 5XFAD mouse; type: in vivo; details: particularly 0.1 mg/kg; vs vehicle
Source text: Two slides for Tuj1 staining and three for calbindin staining are shown for each treatment group.

[5] = system: Aβ(1-40) and Aβ(1-42); experiment: ELISA of Aβ(1-40) and Aβ(1-42) in brain hemispheres, 5XFAD mouse; type: in vivo; details: orally daily for 28 days; vs vehicle
[6] = system: mouse adult neural stem cells; details: 10 nM and 100 nM; regardless of 10 μM amyloid-beta; 4 days
Protocol: NSC were isolated from the subventricular zone of week 8 mouse brain, treated with 20 ng/ml human basic fibroblast growth factor (bFGF) and 20 ng/ml human epidermal growth factor (EGF) in an IPM medium, and cultured as a suspension in 24-well plates for 7 days.
Two days before the isolation of single cells, 6-well plates were prepared by treating the wells with 10 μg/ml poly-L-ornithine solution and incubating overnight at room temperature for coating. The next day, poly-L-ornithine solution was removed and the plates were washed 3 times with sterilized triple distilled water. […] The culture solution used is N2 culture medium (supplemented with 20 ng/ml bFGF and 20 ng/ml EGF). Right before seeding, the coating solution was suctioned out, and the single cells were uniformly seeded into the culture plate before the plate dried up. Cells were allowed to attach to the plates for about one minute, and after checking that cells were sufficiently attached, an additional 1.5 ml of culture medium (N2 culture medium with 20 ng/ml bFGF and 20 ng/ml EGF) was added to the cells and cultured in a 37° C. incubator for 24 hours.
Wells not treated with amyloid-beta were left to use as negative controls.
Gibco's (Waltham, Mass.) human Aβ (1-42) was purchased to use for the amyloid-beta (Aβ), and the following process was followed to create oligomers. […] Then, it was dried for 10 minutes in a speed Vac, after which DMSO (Sigma, cat #.D2650) was added to bring the concentration to 5 mM and then lightly vortexed at room temperature for 10 minutes. […] The solution was incubated at 4° C. for 24 hours and then added into the cultured cells.
The NCSs were cultured with the daily addition of EGF, bFGF, amyloid-beta, and test materials for 4 days.

[7] = system: 5XFAD mouse; experiment: TUNEL assay of apoptosis in brain slices, 5XFAD mouse; type: in vivo; details: orally daily for 28 days; vs vehicle
Protocol: The TUNEL assay stains the 3′-hydroxyl terminus of fragmented DNA, allowing the detection of cells undergoing apoptosis in the tissue.
Specifically, the brain tissue slides were permeabilized with 20 μg/ml proteinase K solution for 10 minutes, incubated with equilibration buffer for 10 minutes, and then incubated with TdT solution at 37° C. for 1 hour.

[8] = system: mouse embryonic neural stem cells; experiment: Immunocytochemistry analysis (Tuj1/DAPI staining); type: cell-based; details: 10 nM; 4 days
Protocol: Tuj1 (Neuron specific class III beta-tubulin) is a neuron specific marker protein, which was conjugated to rhodamine to show fluorescent red, while DAPI binds to the cell DNA and stains the cell nuclei fluorescent blue. […] The medium was removed and the cells were washed with PBS. After fixing with 10% formaldehyde (Sigma cat #. HT501128) at room temperature for 10 minutes, they were washed again with PBS. They were permeabilized with 0.2% Triton X-100 (Sigma, cat #. 93443) at room temperature for 15 minutes, washed with PBS, and incubated with 10% BSA (Sigma, cat #. A2153)+1% normal goat serum (Vector lab, Burlingame, Calif., cat #. S1000) at room temperature for 1 hour. […] The solution was removed, washed with PBS, and incubated at room temperature for 1 hour with the secondary antibody (rhodamine-conjugated antibody) diluted in 1% BSA+1% normal goat serum at a ratio of 1:200. Then, the cells were washed with PBS, incubated with 5 μg/ml DAPI (Sigma, cat #. D9542) for 5 minutes, washed with PBS again, and mounted on a slide glass for analysis with a fluorescent microscope.

[9] = system: mouse embryonic neural stem cells; experiment: qRT-PCR of neuronal marker mRNA expression in mouse embryonic NSC; type: cell-based
Protocol: Isopropanol (Ducsan, GyunggiDo, Korea, cat #. 67-63-0) was added and mixed for RNA isolation, then centrifuged again to remove the supernatant and obtain the pellet. The RNA pellet was resuspended in 75% ethanol (Ducsan, cat #. 64-17-15), centrifuged, and the supernatant removed. The pellet was then resuspended in sterilized triple distilled water to obtain the mRNA, incubated for 10 minutes at 55° C., and stored at −80° C.
Sterilized triple distilled water, 1 pM oligo dT, and 1 mM dNTP were added to the RNA and incubated for 5 minutes at 65° C. This was followed by the addition of 5× First-strand buffer, 10 mM DTT, and M-MLV reverse transcriptase and incubated at 42° C. for 1 hour, then at 72° C. for 15 minutes, and at 4° C. for 30 minutes. The synthesized cDNA was stored at −20° C.
The term relative mRNA expression level signifies that in order to normalize each group's total RNA level, the mRNA expression level of each differentiation marker is divided by the expression level of GAPDH whose expression level is fairly constant across cells, and then the values of each test material are compared with those of the controls (undifferentiated NSC) in each group.

[10] = system: MEK 1, MEK2; details: cited from earlier work
[11] = system: 5XFAD mouse; experiment: Tuj1 staining in the somatosensory cortex, 5XFAD mouse; type: in vivo
Protocol: Anti-Tuj1 antibodies were added to the brain tissue slides of 5XFAD mouse in Example 8 and incubated at 4° C. for 1 day, after which the tissue slides were fluorescently stained by incubating with Fluorescein isothiocyanate (FITC)-secondary antibodies (Invitrogen, cat #. A21121) at room temperature for 1 hour. In FIG. 15, the areas marked with arrows (→) indicate cells stained with Tuj1 and the areas marked with arrowheads (▾) indicate plaques formed by amyloid-beta aggregation. Plaques were present in both vehicle-treated and trametinib-treated groups.

[12] = system: mouse embryonic neural stem cells; experiment: Morphology analysis (phase-contrast) of NSC differentiation in mouse embryonic neural stem cells; type: cell-based; details: 4 days of culture
Protocol: Neural stem cells were isolated from the brain of a day 14.5 mouse embryo, treated with 10 ng/ml human basic fibroblast growth factor (bFGF) (Peprotech, Princeton, NG, cat #0.100-18B) and 20 ng/ml human epidermal growth factor (EGF) (Peprotech, cat #. AF-100-15) in a N2 culture medium, and cultured in suspension in a 25 cm2 flask (Nunc, Pittsburgh, Pa.) for 4 days. Formation of neurospheres was observed after 2 days.
In order to isolate single cells, 6-well plates were prepared the day before by treating the wells with 15 μg/ml poly-L-ornithine (Sigma, St. Louis, Mo., cat #.P2533) solution and incubating overnight at 37° C. for coating. The day of the single cell isolation, poly-L-ornithine solution was removed, the plates were washed with PBS three times, and 10 μg/ml fibronectin (Gibco, Waltham, Mass., cat #. 33016015) solution was added and incubated at 37° C. for 2 hours for coating.
Various concentrations of the compound of [Formula 1]
FIG. 10b is the analysis of Tuj1 mRNA expression in the cells of each group.

[13] = system: 5XFAD mouse; experiment: Nissl, NeuN and DCX staining in the hippocampal dentate gyrus, 5XFAD mouse; type: in vivo; details: orally daily for 28 days
Protocol: After placing in 0.1% cresyl violet (Sigma, cat #. C5042) solution at room temperature for 15 minutes, they were dehydrated by sequentially immersing in 80%, 90%, 100% alcohol, and xylene. Coverslips were put on the slides and the neurons examined.
NeuN staining was performed by the same method as described in Example 8 as was DCX staining, but using anti-DCX antibodies (Santa Cruz, cat #. sc271390) instead of anti-NeuN antibodies.

[14] = system: 5XFAD mouse; experiment: NeuN immunohistochemical staining of brain slices, 5XFAD AD model mouse; type: in vivo; details: orally daily for 28 days; vs vehicle
Protocol: The mouse was then anesthetized and perfused with PBS for the extraction of the brain. […] The other half of the hemispheres plus another 3 extracted mice brains per group were placed in 10% formalin solution at 4° C. for 1 day, which was then followed with the proceeding steps to allow good penetration of paraffin into the brain tissue. The brain tissues were immersed sequentially in 70%, 80%, 95%, 100% alcohol for 1 hour each for dehydration, then immersed in xylene 3 times for 1 hour each for clearing, and embedded in paraffin by placing in liquid paraffin 2 times for 1 hour each. After these procedures, the paraffin-embedded brain tissue (paraffin block) was cut into 5 μm sections, mounted on slides, and stored at room temperature. […]
FIG. 13b indicates the number of NeuN stained cells counted and represented as the percentage of the number of cells per unit area in the motor cortex layer 5 region. Area samples were taken from 6 areas per mouse, 3 mice per group, so the number of cells counted was from a total of 18 areas.
FIG. 14b indicates the number of NeuN stained cells counted and represented as the percentage of the number of cells per unit area in the dotted area of the hippocampal subiculum shown in FIG. 14a. Area samples were taken from 3 areas per mouse, 3 mice per group, so the number of cells counted was from a total of 9 areas.

[15] = 1 nM, 10 nM, 25 nM, 100 nM, 2 days

## CC(=O)Nc1cccc(-n2c(=O)n(C3CC3)c(=O)c3c(Nc4ccc(I)cc4F)n(C)c(=O)c(C)c32)c1 [trametinib, N-(3-{3-cyclopropyl-5-[(2-fluoro-4-iodophenyl)amino]-6,8-dimethyl-2,4,7-trioxo-3,4,6,7-tetrahydropyrido[4,3-d]pyrimidin-1(2H)-yl}phenyl)acetamide]
[1]
  number of cells stained with BrdU in the dentate gyrus: an increase in the number of cells stained with BrdU
[2]
  mRNA expression of cholinergic neuron marker ChAT: increased
  mRNA expression of dopaminergic neuron marker TH: increased
  mRNA expression of neuronal marker Tuj1: increased
[3]
  protein level of pERK in the brain: considerably lower
[4]
  axon structure of cerebellar Purkinje cells: increased axon arborization or at least with preserved axon structure
[5]
  amount of Aβ(1-42)/Aβ(1-40) in brain: decreased
[6]
  differentiation of NSC into neurons (morphology): readily induced the differentiation of NSC into neurons
[7]
  number of TUNEL stained cells in somatosensory cortex and subiculum: significantly lower
[8]
  neuron differentiation (Tuj1 staining): increasingly active differentiation activity
[9]; [15]
  mRNA expression of GABAergic neuron marker Gad1: increased with the increase in concentration
  mRNA expression of cholinergic neuron marker ChAT: increased with the increase in concentration
  mRNA expression of dopaminergic neuron marker TH: increased with the increase in concentration
  mRNA expression of motor neuron marker Isl1: increased with the increase in concentration
[9]; 4 days
  concentration at which differentiation-inducing effect is exerted (Tuj1, TH mRNA): 1 nM
[10]
  IC50: 0.92 to 3.4 nM
[11]
  lowest dose showing neural stem cell differentiation-inducing activity: 0.1 mg/kg/day
[12]; 10 nM, 25 nM and 100 nM
  differentiation of NSC into neurons (morphology): readily induced the differentiation of NSC into neurons
[12]
  concentration at which differentiation of NSC into neurons is seen: ≥ 10 nM
[13]
  immature neurons stained by DCX in dentate gyrus: seen to be present
  number of cells with Type 2 or Type 3 morphology in dentate gyrus (Nissl and NeuN staining): increased considerably
[14]
  number of NeuN stained neurons, hippocampal subiculum: significant increase in the number of neurons
  number of NeuN stained neurons, motor cortex layer 5: significant increase in the number of neurons
